Patent publication US10329282B2, “Rho-associated protein kinase inhibitor, pharmaceutical composition comprising the same, as well as preparation method and use thereof” (Beijing Tide Pharmaceutical Co., Ltd., priority 2017, dated 2019)

Biological target: ROCK2 (Homo sapiens (Human), UniProt O75116)
Assay: ROCK2 kinase IC50 assay (CISBIO HTRF KinEASE-STK S2 kit)
Assay type: biochemical
Conditions: ROCK2 from Carna Biosciences, 2 h incubation at room temperature
Procedure: The kinase IC50 was determined by a commercialized CISBIO kinase detection kit, HTRF KinEASE-STK S2 kit (62ST2PEC). ROCK2 (01-119) employed in the reaction was purchased from Carna Biosciences.
Before the assay, the following working solutions as needed were formulated with corresponding reagents according to the instruction of the kinase detection kit: 1×kinase buffer, 5×STK-52 substrate working solution (1.5 μM) and 5×ATP working solution (1.5 μM), 5×ROCK2 kinase working solution, 4×Streptavidin-XL665 working solution, and 4×STK-Ab-Cryptate 2 detection solution. Then the assay was performed according to the following procedure.
A solution of a compound at a concentration of 10000 nM was prepared with the 1×kinase buffer containing 2.5% DMSO. Gradient dilution of the solution of the compound was performed with the kinase buffer containing DMSO, so as to obtain solutions of a test compound at 9 different concentrations. In addition to wells of test compounds, a positive well (containing all the reagents except the compound) and a negative well (containing all the reagents except the test compound and kinase) were set. Except for the control wells (positive and negative wells), a solution of a test compound (4 μL) was added to each of the reaction wells, and a solution of 2.5% DMSO was added to the control wells. Then the substrate (2 μM, i.e., 2 μL 5×STK-S2 substrate working solution) was added to each of the reaction wells. The 5×ROCK2 kinase working solution (2 μL, containing 1.4 ng ROCK2 kinase) was added to each of the reaction wells except for the negative well, the volume of which was made up with the 1×kinase buffer (2 μL). The 5×ATP working solution (2 μL) was added to each of the reaction wells, and the mixtures were incubated at room temperature for 2 hours. After the kinase reaction was complete, the 4×Streptavidin-XL665 working solution was added to each of the reaction wells, the solutions were mixed, followed by immediate addition of the 4×STK-Ab-Cryptate 2 detection solution (5 μL), and the mixtures were incubated at room temperature for 1 hour. The fluorescence signal was read on ENVISION (Perkinelmer) (excitation wavelength: 320 nm, and emission wavelength: 665 nm and 615 nm). The inhibitory rate in each well was calculated based on the fluorescence intensity value: ER (Emission Ratio)=(fluorescence intensity at 665 nm/fluorescence intensity at 615 nm); inhibitory rate=(ERpositive−ERtest compound) (ERpositive−ERnegative)*100%. Curves were plotted and fitted to obtain the median inhibitory concentration (IC50) of each teat compound with the PRISM 5.0 software.

Sequence of ROCK2 (O75116 1-553): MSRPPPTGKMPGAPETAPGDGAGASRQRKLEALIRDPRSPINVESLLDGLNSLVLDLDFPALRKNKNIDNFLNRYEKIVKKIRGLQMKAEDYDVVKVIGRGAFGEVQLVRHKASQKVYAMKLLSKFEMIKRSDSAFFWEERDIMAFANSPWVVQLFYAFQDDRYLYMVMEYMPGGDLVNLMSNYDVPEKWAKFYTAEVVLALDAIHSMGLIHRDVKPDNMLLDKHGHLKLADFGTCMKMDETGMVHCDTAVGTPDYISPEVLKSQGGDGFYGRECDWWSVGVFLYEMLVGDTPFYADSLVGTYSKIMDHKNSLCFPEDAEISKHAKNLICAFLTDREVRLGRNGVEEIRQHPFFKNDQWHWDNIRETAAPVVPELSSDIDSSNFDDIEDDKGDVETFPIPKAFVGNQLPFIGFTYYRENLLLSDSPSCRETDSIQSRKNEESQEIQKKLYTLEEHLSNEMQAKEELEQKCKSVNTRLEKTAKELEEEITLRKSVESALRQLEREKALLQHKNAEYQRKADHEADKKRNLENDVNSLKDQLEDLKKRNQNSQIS

Compound	IC50 [nM]
O=C(Nc1cnoc1)c1cc2ccc(-c3nccc(Nc4ccc5[nH]ncc5c4)n3)cc2[nH]1 [TDI01156, 6-(4-((1H-indazol-5-yl)amino)pyrimidin-2-yl)-N-(isoxazol-4-yl)-1H-indole-2-carboxamide]	25
O=C(Nc1ccc2[nH]ncc2c1)c1cc2ccc(-c3nccc(Nc4ccc5[nH]ncc5c4)n3)cc2[nH]1 [TDI01182, 6-(4-((1H-indazol-5-yl)amino)pyrimidin-2-yl)-N-(1H-indazol-5-yl)-1H-indole-2-carboxamide]	46
CC(C)(C)OC(=O)n1cc(NC(=O)c2cc3ccc(-c4nccc(Nc5ccc6[nH]ncc6c5)n4)cc3[nH]2)cn1 [TDI01200, tert-butyl 4-(6-(4-((1H-indazol-5-yl)amino)pyrimidin-2-yl)-1H-indole-2-carboxamido)-1H-pyrazole-1-carboxylate]	23
O=C(Nc1ccccc1)c1cc2ccc(-c3nccc(Nc4ccc5[nH]ncc5c4)n3)cc2[nH]1 [TDI01215, 6-(4-((1H-indazol-5-yl)amino)pyrimidin-2-yl)-N-phenyl-1H-indole-2-carboxamide]	382
CN(C)c1ccc(NC(=O)c2cc3ccc(-c4nccc(Nc5ccc6[nH]ncc6c5)n4)cc3[nH]2)cn1 [TDI01221, 6-(4-((1H-indazol-5-yl)amino)pyrimidin-2-yl)-N-(6-(dimethylamino)pyridin-3-yl)-1H-indole-2-carboxamide]	91
CN1CCN(CC(=O)n2ccc3ccc(-c4nccc(Nc5ccc6[nH]ncc6c5)n4)cc32)CC1 [TDI01230, 1-(6-(4-((1H-indazol-5-yl)amino)pyrimidin-2-yl)-1H-indol-1-yl)-2-(4-methylpiperazin-1-yl)ethan-1-one]	109
CC(C)NC(=O)c1cc2ccc(-c3nccc(Nc4ccc(-c5cn[nH]c5)cc4)n3)cc2[nH]1 [TDI01280, 6-(4-((4-(1H-pyrazol-4-yl)phenyl)amino)pyrimidin-2-yl)-N-isopropyl-1H-indole-2-carboxamide]	94
CC(C)NC(=O)c1c[nH]c2ccc(-c3nccc(Nc4ccc5[nH]ncc5c4)n3)cc12 [TDI01285, 5-(4-((1H-indazol-5-yl)amino)pyrimidin-2-yl)-N-isopropyl-1H-indole-3-carboxamide]	116
O=C(NC1CCOCC1)c1cc2ccc(-c3nccc(Nc4ccc5[nH]ncc5c4)n3)cc2[nH]1 [TDI01291, 6-(4-((1H-indazol-5-yl)amino)pyrimidin-2-yl)-N-(tetrahydro-2H-pyran-4-yl)-1H-indole-2-carboxamide]	32
CC(C)NC(=O)C1Cc2ccc(-c3nccc(Nc4ccc5[nH]ncc5c4)n3)cc2N1 (stereo not shown) [TDI01292, 6-(4-((1H-indazol-5-yl)amino)pyrimidin-2-yl)-N-isopropylindoline-2-carboxamide]	242
CNC(=O)c1cc2ccc(-c3nccc(Nc4ccc(-c5cn[nH]c5)cc4)n3)cc2[nH]1 [TDI01296, 6-(4-((4-(1H-pyrazol-4-yl)phenyl)amino)pyrimidin-2-yl)-N-methyl-1H-indole-2-carboxamide]	211
CC(C)OC(=O)c1cc2ccc(-c3nccc(Nc4ccc(-c5cn[nH]c5)cc4)n3)cc2[nH]1 [TDI01299, isopropyl 6-(4-((4-(1H-pyrazol-4-yl)phenyl)amino)pyrimidin-2-yl)-1H-indole-2-carboxylate]	463
O=C(Nc1ccccn1)c1cc2ccc(-c3nccc(Nc4ccc5[nH]ncc5c4)n3)cc2[nH]1 [TDI01311, 6-(4-((1H-indazol-5-yl)amino)pyrimidin-2-yl)-N-(pyridin-2-yl)-1H-indole-2-carboxamide]	465
CC(C)NC(=O)N1Cc2ccc(-c3nccc(Nc4ccc5[nH]ncc5c4)n3)cc2C1 [TDI01312, 5-(4-((1H-indazol-5-yl)amino)pyrimidin-2-yl)-N-isopropylisoindoline-2-carboxamide]	73
COc1ccc(NC(=O)c2cc3ccc(-c4nccc(Nc5ccc6[nH]ncc6c5)n4)cc3[nH]2)cn1 [TDI01315, 6-(4-((1H-indazol-5-yl)amino)pyrimidin-2-yl)-N-(6-methoxypyridin-3-yl)-1H-indole-2-carboxamide]	126
CN1CCC(N2CCCC(NC(=O)c3cc4ccc(-c5nccc(Nc6ccc7[nH]ncc7c6)n5)cc4[nH]3)C2)CC1 (stereo not shown) [TDI01318, 6-(4-((1H-indazol-5-yl)amino)pyrimidin-2-yl)-N-(1′-methyl-[1,4′-bipiperidin]-3-yl)-1H-indole-2-carboxamide]	18
O=C(NC1CC1)c1cc2ccc(-c3nccc(Nc4ccc(-c5cn[nH]c5)cc4)n3)cc2[nH]1 [TDI01324, 6-(4-((4-(1H-pyrazol-4-yl)phenyl)amino)pyrimidin-2-yl)-N-cyclopropyl-1H-indole-2-carboxamide]	101
CC(C)NC(=O)c1ccc2ccc(-c3nccc(Nc4ccc5[nH]ncc5c4)n3)cc2n1 [TDI01327, 7-(4-((1H-indazol-5-yl)amino)pyrimidin-2-yl)-N-isopropylquinoline-2-carboxamide]	472

Further lines, results first:

IC50 [nM]	Compound
54	O=C(Nc1cnccn1)c1cc2ccc(-c3nccc(Nc4ccc5[nH]ncc5c4)n3)cc2[nH]1 [TDI01160, 6-(4-((1H-indazol-5-yl)amino)pyrimidin-2-yl)-N-(pyrazin-2-yl)-1H-indole-2-carboxamide]
210	O=C(Nc1ccncn1)c1cc2ccc(-c3nccc(Nc4ccc5[nH]ncc5c4)n3)cc2[nH]1 [TDI01161, 6-(4-((1H-indazol-5-yl)amino)pyrimidin-2-yl)-N-(pyrimidin-4-yl)-1H-indole-2-carboxamide]
63	O=C(Nc1cccnc1)c1cc2ccc(-c3nccc(Nc4ccc5[nH]ncc5c4)n3)cc2[nH]1 [TDI01171, 6-(4-((1H-indazol-5-yl)amino)pyrimidin-2-yl)-N-(pyridin-3-yl)-1H-indole-2-carboxamide]
28	CC(CO)NC(=O)c1cc2ccc(-c3nccc(Nc4ccc5[nH]ncc5c4)n3)cc2[nH]1 (stereo not shown) [TDI01176, 6-(4-((1H-indazol-5-yl)amino)pyrimidin-2-yl)-N-(1-hydroxypropan-2-yl)-1H-indole-2-carboxamide]
30	O=C(Nc1cn[nH]c1)c1cc2ccc(-c3nccc(Nc4ccc5[nH]ncc5c4)n3)cc2[nH]1 [TDI01199, 6-(4-((1H-indazol-5-yl)amino)pyrimidin-2-yl)-N-(1H-pyrazol-4-yl)-1H-indole-2-carboxamide]
134	O=C(Nc1nncs1)c1cc2ccc(-c3nccc(Nc4ccc5[nH]ncc5c4)n3)cc2[nH]1 [TDI01247, 6-(4-((1H-indazol-5-yl)amino)pyrimidin-2-yl)-N-(1,3,4-thiadiazol-2-yl)-1H-indole-2-carboxamide]
62	O=C(Nc1cnc2[nH]ccc2c1)c1cc2ccc(-c3nccc(Nc4ccc5[nH]ncc5c4)n3)cc2[nH]1 [TDI01258, 6-(4-((1H-indazol-5-yl)amino)pyrimidin-2-yl)-N-(1H-pyrrolo[2,3-b]pyridin-5-yl)-1H-indole-2-carboxamide]
72	CN(C)c1cnccc1NC(=O)c1cc2ccc(-c3nccc(Nc4ccc5[nH]ncc5c4)n3)cc2[nH]1 [TDI01289, 6-(4-((1H-indazol-5-yl)amino)pyrimidin-2-yl)-N-(3-(dimethylamino)pyridin-4-yl)-1H-indole-2-carboxamide]
46	O=C(Nc1ccncc1Cl)c1cc2ccc(-c3nccc(Nc4ccc5[nH]ncc5c4)n3)cc2[nH]1 [TDI01290, 6-(4-((1H-indazol-5-yl)amino)pyrimidin-2-yl)-N-(3-chloropyridin-4-yl)-1H-indole-2-carboxamide]
352	CN(C)C(=O)c1cc2ccc(-c3nccc(Nc4ccc(-c5cn[nH]c5)cc4)n3)cc2[nH]1 [TDI01294, 6-(4-((4-(1H-pyrazol-4-yl)phenyl)amino)pyrimidin-2-yl)-N,N-dimethyl-1H-indole-2-carboxamide]
87	CN1CCC(n2cc(NC(=O)c3cc4ccc(-c5nccc(Nc6ccc7[nH]ncc7c6)n5)cc4[nH]3)cn2)CC1 [TDI01316, 6-(4-((1H-indazol-5-yl)amino)pyrimidin-2-yl)-N-(1-(1-methylpiperidin-4-yl)-1H-pyrazol-4-yl)-1H-indole-2-carboxamide]
112	CN1CCC(N2CCC(NC(=O)c3cc4ccc(-c5nccc(Nc6ccc7[nH]ncc7c6)n5)cc4[nH]3)CC2)CC1 [TDI01317, 6-(4-((1H-indazol-5-yl)amino)pyrimidin-2-yl)-N-(1′-methyl-[1,4′-bipiperidin]-4-yl)-1H-indole-2-carboxamide]
410	CN1CCC2(CC1)CCN(C(=O)c1cc3ccc(-c4nccc(Nc5ccc6[nH]ncc6c5)n4)cc3[nH]1)CC2 [TDI01320, (6-(4-((1H-indazol-5-yl)amino)pyrimidin-2-yl)-1H-indol-2-yl)(9-methyl-3,9-diazaspiro[5.5]undecan-3-yl)methanone]
